Source: PMC3523717 (Angewandte Chemie (International ed. in English), 2012)
pIC50: −log10 of the molar value.

Target: T1, Aurora kinase A (AKA) (Homo sapiens, UniProt O14965)
T1 sequence (O14965 1-403): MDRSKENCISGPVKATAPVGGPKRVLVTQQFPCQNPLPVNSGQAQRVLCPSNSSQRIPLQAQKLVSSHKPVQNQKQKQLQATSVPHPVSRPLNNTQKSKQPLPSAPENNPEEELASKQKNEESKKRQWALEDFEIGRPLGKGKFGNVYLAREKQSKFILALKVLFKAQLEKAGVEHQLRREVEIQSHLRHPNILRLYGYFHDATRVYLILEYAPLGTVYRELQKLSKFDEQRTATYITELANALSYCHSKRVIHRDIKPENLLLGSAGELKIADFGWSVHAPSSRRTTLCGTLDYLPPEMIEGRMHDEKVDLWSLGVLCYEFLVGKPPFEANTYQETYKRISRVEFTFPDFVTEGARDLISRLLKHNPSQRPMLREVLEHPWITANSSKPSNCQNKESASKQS
Assay: kinase activity assay
Format: biochemical

pIC50: 7.21
Substance: MLN8054-TCO [compound 13]
